Reference: ChEMBL document CHEMBL1152171 (Bioorg Med Chem Lett, 2008)

The molecules below were run against Synaptic vesicular amine transporter (Rattus norvegicus, UniProt Q01827) (assay: Displacement of [3H]dihydrotetrabenazine from vesicular monoamine transporter-2 in rat brain synaptosome).
Chain of Synaptic vesicular amine transporter (Q01827 whole entry): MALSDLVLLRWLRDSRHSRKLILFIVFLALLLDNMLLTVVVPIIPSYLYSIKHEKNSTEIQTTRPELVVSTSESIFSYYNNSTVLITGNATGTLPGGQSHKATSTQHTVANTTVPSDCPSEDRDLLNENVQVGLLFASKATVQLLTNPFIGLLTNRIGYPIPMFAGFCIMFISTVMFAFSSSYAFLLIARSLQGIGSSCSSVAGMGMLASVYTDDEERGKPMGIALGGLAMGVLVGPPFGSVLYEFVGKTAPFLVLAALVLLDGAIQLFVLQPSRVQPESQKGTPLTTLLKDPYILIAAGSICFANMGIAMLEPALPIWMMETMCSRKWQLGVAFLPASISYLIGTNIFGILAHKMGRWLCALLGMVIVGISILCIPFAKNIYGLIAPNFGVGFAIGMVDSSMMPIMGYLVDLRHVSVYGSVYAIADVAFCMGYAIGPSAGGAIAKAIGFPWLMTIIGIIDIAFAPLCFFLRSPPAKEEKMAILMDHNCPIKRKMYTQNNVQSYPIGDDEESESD
Type: tissue-based
Work on CN1[C@@H](Cc2ccccc2)CCC[C@H]1c1ccccc1 yielded a Ki of 13.6 µM. In the case of c1ccc(CCC[C@H]2CCC[C@@H](CCc3ccccc3)N2)cc1, the Ki is reported as 4.6 µM. With CN1[C@@H](CCCc2ccccc2)CCC[C@H]1CCc1ccccc1 the Ki was 0.88 µM. c1ccc(C[C@H]2CCC[C@@H](c3ccccc3)N2)cc1 showed a Ki of 24.1 µM. CN1[C@@H](CCc2ccccc2)CCC[C@H]1Cc1ccccc1 showed a Ki of 2.77 µM. CN1[C@H](CCCc2ccccc2)CCC[C@@H]1CCCc1ccccc1 gave a Ki of 1 µM. CN1[C@@H](c2ccccc2)CCC[C@H]1c1ccccc1 was tested, and the Ki was over 100 µM. For c1ccc(CCC[C@@H]2CCC[C@H](CCCc3ccccc3)N2)cc1, the Ki was 4.56 µM. c1ccc(CCC[C@H]2CCC[C@@H](c3ccccc3)N2)cc1 gave a Ki of 28.6 µM. c1ccc(CC[C@H]2CCC[C@@H](c3ccccc3)N2)cc1 showed a Ki of 28.4 µM. With CN1[C@@H](CCCc2ccccc2)CCC[C@H]1Cc1ccccc1 the Ki was 1.62 µM. For CN1[C@@H](Cc2ccccc2)CCC[C@H]1Cc1ccccc1, the Ki was 10.5 µM. Molecule c1ccc(CCC[C@H]2CCC[C@@H](Cc3ccccc3)N2)cc1 has a Ki of 1.13 µM. With c1ccc(CC[C@H]2CCC[C@@H](Cc3ccccc3)N2)cc1 the Ki was 12.2 µM. c1ccc(C[C@H]2CCC[C@@H](Cc3ccccc3)N2)cc1 was tested, and the Ki was 7.68 µM. CN1[C@@H](CCCc2ccccc2)CCC[C@H]1c1ccccc1 showed a Ki of 62.5 µM.
